Among the data in US20060148842A1, “Nepetalactams and N-substituted derivatives thereof” (priority 2004, published 2006) are pest or weed control values, retold here.

For the assay, the system named is Aedes aegypti mosquitoes. Put plainly: in vitro Gupta box landing assay (insect repellency). The conditions noted are these: 20 min; 1.0% (w/v) in IPA, 25 μL on Baudruche membrane; landings of female Aedes aegypti over 20 min vs IPA control. As to the method: The products of Examples 1-15 were evaluated for insect repellency against Aedes aegypti mosqutioes in the in vitro Gupta box landing assay. In this method a chamber contained 5 wells, each covered by a Baudruche (animal intestine) membrane. Each well was filled with bovine blood containing sodium citrate (to prevent clotting) and ATP (72 mg ATP disodium salt per 26 ml of blood), and heated to 37° C. A volume of 25 μL of isopropyl alcohol (IPA) containing one test specimen or control was applied to each membrane. The concentrations were 1.0% (w/v) in IPA. The negative control was membrane surface treated with neat IPA, and the positive control was a 1.0% (w/v) solution of DEET.
After 5 min, approximately 250 4-day-old female Aedes aegypti mosquitoes were introduced into the chamber. The number of mosquitoes probing the membranes for each treatment was recorded at 2 min intervals over 20 min. The results obtained in this manner with respect to the compounds of Examples 1˜12 are depicted, respectively, in FIGS. 1-12 (labeled as Examples 16˜27) wherein each datum represents the mean of five replicate experiments.
where C=the total number of landings on the IPA control well, and T=the total number of landings on the test solution well. The % mean repellencies at 1% (w/v) with respect to the compounds of Examples 1˜15 are depicted in Table 2, wherein R refers to the substituent on nepetalactam.

Usually pest or weed control stands for the degree to which the test organism was suppressed or injured, in per cent. Read a low pest or weed control as weak suppression. `CCCCN1C=C(C)[C@H]2CC[C@H](C)[C@H]2C1=O` [IIId, (4aS,7S,7aR)-2-n-butyl-4,7-dimethyl-2,4a,5,6,7,7a-hexahydro-1H-cyclopenta[c]pyridin-1-one] returned a pest or weed control at 10000 µg/mL of 97.3%.

Compound `CC1=CN(c2ccccc2)C(=O)[C@H]2[C@@H]1CC[C@@H]2C` [Va, (4aS,7S,7aR)-4,7-dimethyl-2-phenyl-2,4a,5,6,7,7a-hexahydro-1H-cyclopenta[c]pyridin-1-one] had a pest or weed control at 10000 µg/mL of 93.1%. `CC1=CN(c2ccc(Br)cc2)C(=O)[C@H]2[C@@H]1CC[C@@H]2C` [Vc, (4aS,7S,7aR)-2-(4-bromophenyl)-4,7-dimethyl-2,4a,5,6,7,7a-hexahydro-1H-cyclopenta[c]pyridin-1-one]: the pest or weed control at 10000 µg/mL amounted to 41.5%. `CC1=CNC(=O)[C@H]2[C@@H]1CC[C@@H]2C` [II, (4aS,7S,7aR)-4,7-dimethyl-2,4a,5,6,7,7a-hexahydro-1H-cyclopenta [c]pyridin-1-one] gave a pest or weed control at 10000 µg/mL of 66%.

For the compound `CC1=CN(c2ccc(Cl)cc2)C(=O)[C@H]2[C@@H]1CC[C@@H]2C` [Vb, (4aS,7S,7aR)-2-(4-chlorophenyl)-4,7-dimethyl-2,4a,5,6,7,7a-hexahydro-1H-cyclopenta[c]pyridin-1-one], the pest or weed control at 10000 µg/mL is 75.3%. Consider `CC1=CN(C2CCCCC2)C(=O)[C@H]2[C@@H]1CC[C@@H]2C` [IIIh, (4aS,7S,7aR)-2-n-cyclohexyl-4,7-dimethyl-2,4a,5,6,7,7a-hexahydro-1H-cyclopenta[c]pyridin-1-one], for which the pest or weed control at 10000 µg/mL was found to be 98.9%. For `CCCN1C=C(C)[C@H]2CC[C@H](C)[C@H]2C1=O` [IIIc, (4aS,7S,7aR)-2-n-propyl-4,7-dimethyl-2,4a,5,6,7,7a-hexahydro-1H-cyclopenta[c]pyridin-1-one] the value was 99.8%. Compound `CCN1C=C(C)[C@H]2CC[C@H](C)[C@H]2C1=O` [IIIb, (4aS,7S,7aR)-2-ethyl-4,7-dimethyl-2,4a,5,6,7,7a-hexahydro-1H-cyclopenta[c]pyridin-1-one] came in with a pest or weed control at 10000 µg/mL of 97.9%.

Turning to `C#CCN1C=C(C)[C@H]2CC[C@H](C)[C@H]2C1=O` [IIIk, (4aS,7S,7aR)-2-n-propargyl-4,7-dimethyl-2,4a,5,6,7,7a-hexahydro-1H-cyclopenta[c]pyridin-1-one], the pest or weed control at 10000 µg/mL was 95.6%. For the compound `CCCCCCN1C=C(C)[C@H]2CC[C@H](C)[C@H]2C1=O` [IIIf, (4aS,7S,7aR)-2-n-hexyl-4,7-dimethyl-2,4a,5,6,7,7a-hexahydro-1H-cyclopenta[c]pyridin-1-one], the pest or weed control at 10000 µg/mL was determined as 97.2%. The compound `CC1=CN(C(C)C)C(=O)[C@H]2[C@@H]1CC[C@@H]2C` [IIIi, (4aS,7S,7aR)-2-n-isopropyl-4,7-dimethyl-2,4a,5,6,7,7a-hexahydro-1H-cyclopenta[c]pyridin-1-one] returned a pest or weed control at 10000 µg/mL of 94.7%. Consider `C=CCN1C=C(C)[C@H]2CC[C@H](C)[C@H]2C1=O` [IIIj, (4aS,7S,7aR)-2-n-allyl-4,7-dimethyl-2,4a,5,6,7,7a-hexahydro-1H-cyclopenta[c]pyridin-1-one], for which the pest or weed control at 10000 µg/mL was found to be 78.1%.

In the case of `CCCCCN1C=C(C)[C@H]2CC[C@H](C)[C@H]2C1=O` [IIIe, (4aS,7S,7aR)-2-n-pentyl-4,7-dimethyl-2,4a,5,6,7,7a-hexahydro-1H-cyclopenta[c]pyridin-1-one], the pest or weed control at 10000 µg/mL is 97.5%. Compound `CCCCCCCCN1C=C(C)[C@H]2CC[C@H](C)[C@H]2C1=O` [IIIg, (4aS,7S,7aR)-2-n-octyl-4,7-dimethyl-2,4a,5,6,7,7a-hexahydro-1H-cyclopenta[c]pyridin-1-one] registered a pest or weed control at 10000 µg/mL of 93.2%. For `CC1=CN(C)C(=O)[C@H]2[C@@H]1CC[C@@H]2C` [IIIa, (4aS,7S,7aR)-2,4,7-trimethyl-2,4a,5,6,7,7a-hexahydro-1H-cyclopenta[c]pyridin-1-one] the value was 94.8%.
